Values after ≈ are worked out from the molar mass of the structure shown.
Assays:
Assay in all cases: Antibacterial activity, MIC by agar plate dilution method
Type in all cases: cell-based
H. influenzae ATCC49766 = conditions: Haemophilus influenzae, 1000 cfu/spot
Procedure: (§1) Antibacterial activity of Compound (I) was examined.
(§2) Minimal inhibitory concentration (MIC: μg/ml) was determined by an agar plate dilution method using a sensitive disc medium as a test medium with an innoculation amount of 1000 cfu/spot in conformance with the standard method established by Japanese Society of Chemotherapy.

S. pneumoniae Type I = conditions: Streptococcus pneumoniae, 1000 cfu/spot
Procedure: as §1, §2

P. aeruginosa SR24 = conditions: Pseudomonas aeruginosa, 1000 cfu/spot
Procedure: as §1, §2

E. coli NIHJ JC-2 = conditions: Escherichia coli, NIHJJC2, 1000 cfu/spot
Procedure: as §1, §2

Row | SMILES | MIC (H. influenzae ATCC49766) | MIC (S. pneumoniae Type I) | MIC (P. aeruginosa SR24) | MIC (E. coli NIHJ JC-2)
1 | CC(C)(O/N=C(\C(=O)NC1C(=O)N2C(C(=O)[O-])=C(C[n+]3ccc(NC4CCNC4)cc3)CSC12)c1nsc(N)n1)C(=O)O (stereo not shown) [Example 5] | 0.063 µg/mL (≈ 0.0997 µM) | 0.125 µg/mL (≈ 0.198 µM) | 0.5 µg/mL (≈ 0.792 µM) | 0.125 µg/mL (≈ 0.198 µM)
2 | Cc1c(N)[nH]c2ccc[n+](CC3=C(C(=O)[O-])N4C(=O)C(NC(=O)/C(=N\OC(C)(C)C(=O)O)c5nsc(N)n5)C4SC3)c12 (stereo not shown) [Example 10] | 0.016 µg/mL (≈ 0.026 µM) | 0.125 µg/mL (≈ 0.203 µM) | 0.5 µg/mL (≈ 0.812 µM) | 0.25 µg/mL (≈ 0.406 µM)
3 | CC(C)(O/N=C(\C(=O)NC1C(=O)N2C(C(=O)[O-])=C(C[n+]3cccc4c3nc(N)n4C3CCNCC3)CSC12)c1nsc(N)n1)C(=O)O (stereo not shown) [Example 12] | 0.032 µg/mL (≈ 0.0467 µM) | 0.25 µg/mL (≈ 0.365 µM) | 0.25 µg/mL (≈ 0.365 µM) | 0.125 µg/mL (≈ 0.182 µM)
4 | C[C@H](N)CCn1c(N)nc2c1ccc[n+]2CC1=C(C(=O)[O-])N2C(=O)C(NC(=O)/C(=N\OC(C)(C)C(=O)O)c3nsc(N)n3)C2SC1 (stereo partly shown) [Example 19] | 0.032 µg/mL (≈ 0.0475 µM) | 0.125 µg/mL (≈ 0.186 µM) | 0.5 µg/mL (≈ 0.742 µM) | 0.125 µg/mL (≈ 0.186 µM)

Reference: patent publication US20070219191A1, “3-Pyridinium Methyl Cephem Compound” (priority 2004, published 2007)
